According to ChEMBL document CHEMBL1201862, “PubChem BioAssay data set” (2004):
Activity calls are given as the source filed them.

Assays:
[1] = target: Eukaryotic translation initiation factor 4E (Mus musculus, UniProt P63073); test: blockers of eIF4G binding by eIF4E – biochemical, TR-FRET, dose response (AID 855); format: functional;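 note: potency for disrupting eIF4E binding to eIF4GI seen as loss of FRET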
[2] = target: T1, Small ubiquitin-related modifier 2 (Homo sapiens, UniProt P61956); test: SUMO2 binding disruption by SUMO1 hits – biochemical, FRET, human SUMO2, uHTS hits, selectivity assay for SUMO1 interaction inhibitor project, dose response (AID 624384); format: functional; conditions: read-out: IC50_Mean
T1 sequence (P61956 whole entry): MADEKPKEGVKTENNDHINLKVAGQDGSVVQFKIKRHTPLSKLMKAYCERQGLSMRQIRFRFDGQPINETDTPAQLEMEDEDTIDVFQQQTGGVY

[3] = target: T2, ORF 73 (Human herpesvirus 8, UniProt O40947); test: KSHV LANA DNA-binding disruption – biochemical, fluorescence polarization, cherry-picked samples, dose response (AID 504725); set-up: species or system Human gammaherpesvirus 8;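 note: fluorescence polarization of a labeled DNA duplex reporting LANA DNA binding; potency is for inhibitors that block LANA binding to the DNA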
T2 sequence (O40947 whole entry): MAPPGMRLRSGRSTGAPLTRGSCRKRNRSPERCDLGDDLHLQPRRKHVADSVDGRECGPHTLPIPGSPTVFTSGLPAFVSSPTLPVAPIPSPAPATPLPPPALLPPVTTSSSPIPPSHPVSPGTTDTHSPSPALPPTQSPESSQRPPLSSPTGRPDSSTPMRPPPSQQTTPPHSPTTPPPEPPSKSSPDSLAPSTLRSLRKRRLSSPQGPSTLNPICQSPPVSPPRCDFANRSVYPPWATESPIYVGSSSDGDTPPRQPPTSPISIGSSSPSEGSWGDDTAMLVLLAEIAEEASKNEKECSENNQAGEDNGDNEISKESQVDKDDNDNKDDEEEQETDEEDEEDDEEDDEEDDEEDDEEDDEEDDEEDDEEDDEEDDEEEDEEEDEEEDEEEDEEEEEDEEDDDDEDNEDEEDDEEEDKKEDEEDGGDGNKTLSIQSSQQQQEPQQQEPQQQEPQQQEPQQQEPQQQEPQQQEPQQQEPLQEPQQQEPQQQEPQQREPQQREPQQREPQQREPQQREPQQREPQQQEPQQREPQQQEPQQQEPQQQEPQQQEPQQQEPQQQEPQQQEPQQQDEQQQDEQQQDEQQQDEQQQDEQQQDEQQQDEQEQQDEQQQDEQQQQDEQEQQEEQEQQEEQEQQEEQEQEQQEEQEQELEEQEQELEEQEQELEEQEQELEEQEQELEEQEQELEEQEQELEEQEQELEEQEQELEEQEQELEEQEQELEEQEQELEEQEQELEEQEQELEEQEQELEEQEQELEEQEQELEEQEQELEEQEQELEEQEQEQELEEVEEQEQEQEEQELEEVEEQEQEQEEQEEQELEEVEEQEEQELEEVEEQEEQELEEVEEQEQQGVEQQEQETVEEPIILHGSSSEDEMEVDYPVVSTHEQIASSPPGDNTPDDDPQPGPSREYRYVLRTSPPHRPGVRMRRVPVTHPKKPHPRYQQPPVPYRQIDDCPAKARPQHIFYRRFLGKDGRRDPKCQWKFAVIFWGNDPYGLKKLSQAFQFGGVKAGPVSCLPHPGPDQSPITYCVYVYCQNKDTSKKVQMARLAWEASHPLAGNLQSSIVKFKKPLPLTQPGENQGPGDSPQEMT

[4] = system: HEK293; test: membrane integrity loss in HEK cells – cell-based, fluorescence, cytotoxicity control for IDE activator project, dose response (AID 588440); format: functional; conditions: Homo sapiens;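 note: cytotoxicity by LDH release measuring loss of membrane integrity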
[5] = system: HeLa; test: viability loss in HeLa cells – cell-based, 24 h, cherry-picked samples, cytotoxicity control, dose response (AID 504726); format: functional; conditions: Homo sapiens;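 note: potency for cytotoxicity as loss of luminescence signal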
[6] = target: T3, Caspase-6 (Homo sapiens, UniProt P55212); test: inhibition of CASP6 peptide cleavage – biochemical, VEID-R110 fluorescence, cherry-pick, dose response (AID 720632)
T3 sequence (P55212 whole entry): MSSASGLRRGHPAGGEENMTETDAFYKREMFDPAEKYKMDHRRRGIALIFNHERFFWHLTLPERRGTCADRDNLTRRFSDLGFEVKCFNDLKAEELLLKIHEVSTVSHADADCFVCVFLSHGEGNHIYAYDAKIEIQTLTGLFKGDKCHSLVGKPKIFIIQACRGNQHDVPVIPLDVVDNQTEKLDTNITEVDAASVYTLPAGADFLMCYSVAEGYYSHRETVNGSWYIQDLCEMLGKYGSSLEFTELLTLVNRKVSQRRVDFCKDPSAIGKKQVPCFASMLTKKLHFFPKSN

[7] = target: T4, Small ubiquitin-related modifier 1 (Homo sapiens, UniProt P63165); test: SUMO1 protein interaction blockers, potency – biochemical, fluorescence polarization, uHTS hits, dose response (AID 624382); format: functional; conditions: read-out: IC50_Mean
T4 sequence (P63165 whole entry): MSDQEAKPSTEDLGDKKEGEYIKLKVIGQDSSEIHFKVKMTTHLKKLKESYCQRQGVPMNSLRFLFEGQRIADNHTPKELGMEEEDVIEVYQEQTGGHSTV

[8] = target: T4, Small ubiquitin-related modifier 1; test: SUMO1 protein-protein binding blockers, potency – biochemical, FRET, dose response (AID 624383); format: functional; conditions: read-out: IC50_Mean
[9] = target: T5, Insulin-degrading enzyme (Homo sapiens, UniProt P14735); test: cellular IDE activation of Abeta substrate cleavage – fluorescence polarization, HEK cells, dose response (AID 588439); format: functional, cell-based
T5 sequence (P14735 whole entry): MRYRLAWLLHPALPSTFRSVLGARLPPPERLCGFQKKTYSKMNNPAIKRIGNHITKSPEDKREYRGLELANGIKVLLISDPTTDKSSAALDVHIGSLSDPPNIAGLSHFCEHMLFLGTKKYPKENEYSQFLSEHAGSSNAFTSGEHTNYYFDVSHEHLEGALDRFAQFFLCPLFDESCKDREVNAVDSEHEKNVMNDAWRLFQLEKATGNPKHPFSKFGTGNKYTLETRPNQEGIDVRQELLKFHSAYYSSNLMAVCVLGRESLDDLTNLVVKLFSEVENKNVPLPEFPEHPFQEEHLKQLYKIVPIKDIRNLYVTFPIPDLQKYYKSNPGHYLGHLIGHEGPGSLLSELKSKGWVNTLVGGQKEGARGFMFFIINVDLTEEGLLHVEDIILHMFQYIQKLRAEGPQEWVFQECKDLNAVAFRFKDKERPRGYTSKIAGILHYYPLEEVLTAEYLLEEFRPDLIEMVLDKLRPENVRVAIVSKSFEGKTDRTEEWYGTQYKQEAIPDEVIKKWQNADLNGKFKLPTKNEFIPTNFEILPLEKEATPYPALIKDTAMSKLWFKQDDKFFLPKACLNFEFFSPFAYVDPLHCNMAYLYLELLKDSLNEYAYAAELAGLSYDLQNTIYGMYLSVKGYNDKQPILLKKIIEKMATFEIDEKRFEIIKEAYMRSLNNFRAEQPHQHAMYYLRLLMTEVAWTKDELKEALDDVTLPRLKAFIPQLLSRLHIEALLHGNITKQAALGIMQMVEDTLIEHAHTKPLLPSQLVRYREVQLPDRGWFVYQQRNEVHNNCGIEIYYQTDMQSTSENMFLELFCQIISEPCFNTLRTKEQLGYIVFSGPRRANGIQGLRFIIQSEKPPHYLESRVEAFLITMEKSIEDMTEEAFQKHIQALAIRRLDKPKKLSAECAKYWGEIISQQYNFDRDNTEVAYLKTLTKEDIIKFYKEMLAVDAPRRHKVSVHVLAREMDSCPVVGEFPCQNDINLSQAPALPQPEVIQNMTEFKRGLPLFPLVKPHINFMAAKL

[10] = target: Keap1/Nrf2 (Homo sapiens, UniProt Q14145); test: disruptors of Keap1 binding to Nrf2 peptide – biochemical, fluorescence polarization, cherry-picked samples, dose response (AID 588683)
Chain of Keap1/Nrf2 (Q16236 whole entry): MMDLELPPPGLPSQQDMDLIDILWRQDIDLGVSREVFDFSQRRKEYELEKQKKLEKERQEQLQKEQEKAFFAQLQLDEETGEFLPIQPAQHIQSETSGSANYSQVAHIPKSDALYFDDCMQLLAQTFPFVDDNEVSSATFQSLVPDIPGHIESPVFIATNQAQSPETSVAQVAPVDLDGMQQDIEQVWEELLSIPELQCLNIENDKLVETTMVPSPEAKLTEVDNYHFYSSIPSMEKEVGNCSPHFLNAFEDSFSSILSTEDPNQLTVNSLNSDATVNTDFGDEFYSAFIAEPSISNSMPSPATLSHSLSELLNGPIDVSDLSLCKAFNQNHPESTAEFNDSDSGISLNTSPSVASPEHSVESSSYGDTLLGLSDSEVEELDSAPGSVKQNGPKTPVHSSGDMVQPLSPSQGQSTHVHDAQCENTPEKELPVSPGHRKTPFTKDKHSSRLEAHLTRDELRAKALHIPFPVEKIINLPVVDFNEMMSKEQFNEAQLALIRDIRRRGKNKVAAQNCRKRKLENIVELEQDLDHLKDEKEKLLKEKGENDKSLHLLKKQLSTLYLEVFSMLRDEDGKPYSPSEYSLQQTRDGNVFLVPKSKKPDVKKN
Chain of Keap1/Nrf2 (Q14145 whole entry): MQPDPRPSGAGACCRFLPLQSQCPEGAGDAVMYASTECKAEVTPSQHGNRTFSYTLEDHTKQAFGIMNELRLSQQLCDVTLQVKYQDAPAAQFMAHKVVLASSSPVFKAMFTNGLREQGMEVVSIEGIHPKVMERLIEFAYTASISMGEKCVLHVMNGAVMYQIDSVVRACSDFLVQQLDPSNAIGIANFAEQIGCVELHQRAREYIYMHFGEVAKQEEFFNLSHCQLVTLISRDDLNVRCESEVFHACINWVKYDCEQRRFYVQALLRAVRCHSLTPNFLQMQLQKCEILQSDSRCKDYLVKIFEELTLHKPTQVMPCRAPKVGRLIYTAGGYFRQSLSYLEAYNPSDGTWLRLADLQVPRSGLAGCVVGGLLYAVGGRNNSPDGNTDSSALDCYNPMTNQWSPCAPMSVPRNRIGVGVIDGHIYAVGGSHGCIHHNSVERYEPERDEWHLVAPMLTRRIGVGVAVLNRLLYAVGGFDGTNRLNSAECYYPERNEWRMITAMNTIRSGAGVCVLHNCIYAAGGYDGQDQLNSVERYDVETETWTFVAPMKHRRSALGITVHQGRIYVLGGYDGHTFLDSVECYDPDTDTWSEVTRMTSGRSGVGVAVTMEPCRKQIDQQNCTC

[11] = target: T1, Small ubiquitin-related modifier 2; test: disruption of SUMO2 interaction with SIM peptide – biochemical, fluorescence polarization, uHTS hits, selectivity assay for SUMO1 interaction inhibitor project, dose response (AID 624385); format: functional; conditions: read-out: IC50_Mean
[12] = system: HEK293; test: optical interference in Abeta FP readout, dose response, artefact control for IDE activator project, biochemical, fluorescence polarization (AID 588442); format: functional, cell-based; conditions: Homo sapiens
[13] = target: T5, Insulin-degrading enzyme; test: recombinant IDE activation, cell-free – biochemical, fluorescence polarization, counter-screen for IDE activator project, dose response (AID 588681)
[14] = target: T6, Sentrin-specific protease 1 (Homo sapiens, UniProt Q9P0U3); test: SENP1 catalytic domain blockers, concentration series – biochemical, kinetic FRET, dose response (AID 651697); format: functional; conditions: read-out: IC50_Mean
T6 sequence (Q9P0U3 whole entry): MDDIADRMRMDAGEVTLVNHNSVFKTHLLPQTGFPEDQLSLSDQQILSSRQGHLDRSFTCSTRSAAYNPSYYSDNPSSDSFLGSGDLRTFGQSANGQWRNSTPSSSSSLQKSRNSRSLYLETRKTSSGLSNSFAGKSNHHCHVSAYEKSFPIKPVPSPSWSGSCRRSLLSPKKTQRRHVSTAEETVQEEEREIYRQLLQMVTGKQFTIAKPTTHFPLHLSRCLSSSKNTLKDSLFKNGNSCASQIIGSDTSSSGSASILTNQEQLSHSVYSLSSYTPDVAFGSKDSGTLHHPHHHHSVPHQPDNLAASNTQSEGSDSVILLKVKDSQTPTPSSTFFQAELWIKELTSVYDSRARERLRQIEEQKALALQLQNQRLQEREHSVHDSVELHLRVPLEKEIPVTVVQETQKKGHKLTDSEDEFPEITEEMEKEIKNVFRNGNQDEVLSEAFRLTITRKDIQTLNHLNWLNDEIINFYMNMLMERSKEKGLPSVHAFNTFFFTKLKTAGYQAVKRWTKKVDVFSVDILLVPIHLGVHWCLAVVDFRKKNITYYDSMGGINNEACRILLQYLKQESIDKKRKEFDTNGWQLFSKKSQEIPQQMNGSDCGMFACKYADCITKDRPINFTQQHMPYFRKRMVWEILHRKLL

[15] = target: T7, DNA repair protein RAD52 homolog (Homo sapiens, UniProt P43351); format: functional, biochemical
T7 sequence (P43351 whole entry): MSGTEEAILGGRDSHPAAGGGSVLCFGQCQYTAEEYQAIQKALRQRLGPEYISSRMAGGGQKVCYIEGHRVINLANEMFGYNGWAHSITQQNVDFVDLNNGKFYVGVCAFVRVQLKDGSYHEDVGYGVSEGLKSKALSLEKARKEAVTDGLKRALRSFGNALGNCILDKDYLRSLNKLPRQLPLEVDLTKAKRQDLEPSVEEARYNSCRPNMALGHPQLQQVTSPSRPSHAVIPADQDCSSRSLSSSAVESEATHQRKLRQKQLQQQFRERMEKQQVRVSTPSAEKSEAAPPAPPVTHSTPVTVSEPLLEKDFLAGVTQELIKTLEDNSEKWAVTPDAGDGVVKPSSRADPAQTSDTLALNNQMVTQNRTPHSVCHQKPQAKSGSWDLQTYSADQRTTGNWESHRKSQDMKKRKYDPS

[16] = target: T8, DNA repair and recombination protein RAD54-like (Homo sapiens, UniProt Q92698); test: RAD54 Holliday junction migration blockers – biochemical, fluorescence, cherry-picked samples, dose series, confirmation (AID 651657); format: functional
T8 sequence (Q92698 whole entry): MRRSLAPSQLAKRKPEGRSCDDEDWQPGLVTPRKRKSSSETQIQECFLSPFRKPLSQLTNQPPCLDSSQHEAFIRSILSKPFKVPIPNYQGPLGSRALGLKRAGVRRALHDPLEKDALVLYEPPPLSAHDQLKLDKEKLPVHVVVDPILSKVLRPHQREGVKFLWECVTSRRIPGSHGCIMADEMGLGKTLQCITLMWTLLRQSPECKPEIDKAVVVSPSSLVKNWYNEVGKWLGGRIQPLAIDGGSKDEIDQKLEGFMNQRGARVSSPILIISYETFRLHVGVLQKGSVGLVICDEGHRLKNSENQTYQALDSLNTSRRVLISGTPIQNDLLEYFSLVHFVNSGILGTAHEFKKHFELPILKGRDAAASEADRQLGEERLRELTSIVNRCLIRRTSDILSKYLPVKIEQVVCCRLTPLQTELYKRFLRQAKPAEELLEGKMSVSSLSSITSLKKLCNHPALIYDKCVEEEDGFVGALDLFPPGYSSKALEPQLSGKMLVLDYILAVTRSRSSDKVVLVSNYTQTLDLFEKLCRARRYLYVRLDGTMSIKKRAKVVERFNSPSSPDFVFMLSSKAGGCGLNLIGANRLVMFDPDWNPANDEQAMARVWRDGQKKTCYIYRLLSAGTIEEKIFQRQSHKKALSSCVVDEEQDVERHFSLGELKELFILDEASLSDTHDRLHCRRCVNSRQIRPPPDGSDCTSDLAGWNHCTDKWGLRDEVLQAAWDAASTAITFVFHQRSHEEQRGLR

[17] = acridine orange displacement from DNA – biochemical, fluorescence polarization, cherry-pick, artefact control for RAD54 inhibitor project, dose response (AID 651673); format: functional
[18] = target: SWI/SNF-related matrix-associated actin-dependent regulator of chromatin subfamily A member 2 (Homo sapiens, UniProt P51531); test: Luminescence-based cell-based high throughput dose response assay to identify activators of the function of SWI/SNF related, matrix associated, actin dependent regulator of chromatin, subfamily a, member 2 (SMARCA2, BRM).; format: functional
Chain of SWI/SNF-related matrix-associated actin-dependent regulator of chromatin subfamily A member 2 (P51531 whole entry): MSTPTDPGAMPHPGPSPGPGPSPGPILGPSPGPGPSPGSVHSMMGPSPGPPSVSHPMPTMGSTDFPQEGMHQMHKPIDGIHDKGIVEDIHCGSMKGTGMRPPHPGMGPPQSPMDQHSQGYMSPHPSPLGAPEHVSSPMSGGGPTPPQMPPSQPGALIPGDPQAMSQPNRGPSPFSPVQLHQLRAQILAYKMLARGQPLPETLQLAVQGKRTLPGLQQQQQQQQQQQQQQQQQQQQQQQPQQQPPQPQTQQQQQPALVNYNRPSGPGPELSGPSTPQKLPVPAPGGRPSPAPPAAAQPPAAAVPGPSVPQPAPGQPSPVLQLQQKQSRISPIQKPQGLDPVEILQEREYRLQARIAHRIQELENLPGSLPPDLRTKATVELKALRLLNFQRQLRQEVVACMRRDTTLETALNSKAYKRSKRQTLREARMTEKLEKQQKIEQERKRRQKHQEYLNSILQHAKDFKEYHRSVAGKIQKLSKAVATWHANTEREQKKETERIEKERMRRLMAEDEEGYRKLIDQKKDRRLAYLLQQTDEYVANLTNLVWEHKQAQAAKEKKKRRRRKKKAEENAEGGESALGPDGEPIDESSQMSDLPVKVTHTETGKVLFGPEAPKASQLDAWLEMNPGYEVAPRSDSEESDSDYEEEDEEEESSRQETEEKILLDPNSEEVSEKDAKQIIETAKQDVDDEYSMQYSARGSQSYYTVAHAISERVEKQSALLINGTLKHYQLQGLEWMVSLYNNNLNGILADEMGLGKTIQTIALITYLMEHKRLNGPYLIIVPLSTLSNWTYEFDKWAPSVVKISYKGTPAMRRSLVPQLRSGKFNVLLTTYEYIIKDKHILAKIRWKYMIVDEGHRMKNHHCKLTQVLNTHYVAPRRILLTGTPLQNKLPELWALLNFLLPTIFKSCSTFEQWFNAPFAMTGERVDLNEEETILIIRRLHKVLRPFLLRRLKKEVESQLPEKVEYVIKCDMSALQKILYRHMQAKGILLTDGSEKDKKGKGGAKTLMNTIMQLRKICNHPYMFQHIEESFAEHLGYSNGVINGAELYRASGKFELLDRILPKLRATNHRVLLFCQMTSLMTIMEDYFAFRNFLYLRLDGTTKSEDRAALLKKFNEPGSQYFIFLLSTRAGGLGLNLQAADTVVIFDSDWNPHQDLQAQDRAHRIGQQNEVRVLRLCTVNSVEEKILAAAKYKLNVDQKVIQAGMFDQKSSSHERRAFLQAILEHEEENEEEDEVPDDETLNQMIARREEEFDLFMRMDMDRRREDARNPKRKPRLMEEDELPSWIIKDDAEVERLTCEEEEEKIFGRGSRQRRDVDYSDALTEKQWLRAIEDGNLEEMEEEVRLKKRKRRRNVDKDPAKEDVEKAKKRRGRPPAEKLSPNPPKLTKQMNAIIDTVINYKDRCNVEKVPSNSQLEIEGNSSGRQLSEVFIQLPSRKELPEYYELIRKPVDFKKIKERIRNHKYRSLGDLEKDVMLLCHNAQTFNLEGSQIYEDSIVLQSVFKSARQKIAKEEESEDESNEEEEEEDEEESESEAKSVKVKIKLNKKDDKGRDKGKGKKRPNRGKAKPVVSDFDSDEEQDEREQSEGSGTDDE

[19] = system: Vero; test: cells; format: functional, Chlorocebus sabaeus; conditions: Chlorocebus sabaeus, Vero
[20] = Counterscreen for activators of the function of SWI/SNF related, matrix associated, actin dependent regulator of chromatin, subfamily a, member 2 (SMARCA2, BRM): Luminescence-based cell-based high throughput dose response assay to identify non-selective compounds using the VP16 reporter assay.; format: functional
[21] = target: T6, Sentrin-specific protease 1; test: Dose response confirmation of small molecule inhibitors of the catalytic domain of the SUMO protease, SENP1 in a FRET assay.; format: functional; conditions: read-out: IC50_Mean

Chain of Eukaryotic translation initiation factor 4E (P63073 whole entry): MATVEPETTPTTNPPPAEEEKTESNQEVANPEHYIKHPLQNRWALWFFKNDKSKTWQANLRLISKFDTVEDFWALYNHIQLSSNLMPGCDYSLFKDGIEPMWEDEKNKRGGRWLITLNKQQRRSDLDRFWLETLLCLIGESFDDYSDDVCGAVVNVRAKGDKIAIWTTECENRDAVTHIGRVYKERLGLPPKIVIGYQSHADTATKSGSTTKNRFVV

Cc1cc2nc3c(=O)[nH]c(=O)[nH]c3nc2c([N+](=O)[O-])c1N
inactive: IC50 [1] 50 µM | IC50 [2] > 66 µM | IC50 [4] > 89.3 µM | IC50 [8] 51.7 µM | EC50 [9] > 54.7 µM | EC50 [12] 32.1 µM | EC50 [13] > 54.7 µM
active: AC50 [3] 3.99 µM | AC50 [5] 150 µM | AC50 [6] 4.58 µM | IC50 [7] 2.33 µM | AC50 [10] 1.78 µM | IC50 [11] 2.48 µM

CCN(CC)CCNc1ccc(CO)c2oc3cc(Cl)ccc3c(=O)c12
inactive: EC50 [18] > 91.2 µM | EC50 [20] > 91.2 µM | IC50 [21] 24 µM
active: IC50 [14] 19.8 µM | AC50 [15] 12.5 µM | AC50 [16] 10.2 µM | AC50 [17] 63.1 µM | CC50 [19] 16.7 µM
